Assay results: patent US20060211705A1, “'N-(2-chloro-6-methylphenyl)-2-[[6-[4-(2-hydroxyethyl)-1-piperazinyl]-2-methyl-4-pyrimidinyl]amino]-5-thiazolecarboxamides metabolites” (priority 2005, published 2006)

Tests used:
[1] = Radioactive metabolites in plasma, urine and feces after single oral dose of [14C] compound (I) to rats; assay type: in vivo, Sprague-Dawley rat; conditions: for Metabolites in Feces (0-168 hr), Rat, % Dose / Metabolites in Feces (0-168 hr), Rat, % Rad (% of total radioactivity in sample) / Metabolites in Urine (0-168 hr), Rat, % Dose / Metabolites in Urine (0-168 hr), Rat, % Rad (% of total radioactivity in sample): oral 15 mg/kg; for Metabolites in Feces (0-168 hr), Rat, % Dose / Metabolites in Feces (0-168 hr), Rat, % Rad (% of total radioactivity in sample): pooled fecal extracts 0-168 hr; for Metabolites in Urine (0-168 hr), Rat, % Dose / Metabolites in Urine (0-168 hr), Rat, % Rad (% of total radioactivity in sample): pooled urine 0-168 hr; for % Distribution of radioactive metabolites in pooled plasma, Rat (4 h): oral 15 mg/kg [14C] compound (I), plasma 4 h
Method: (§1) Plasma samples were segregated by collection time and equal volumes of individual plasma samples at a given time point were combined for biotransformation profiling.
(§2) The C-14 label was on the carbon-2 of the thiazole ring.
(§3) HPLC was performed on an Agilent 1100™ system equipped with binary pumps, autoinjector, and a column heater. A Phenomenex Synergy Polar-RP® column (4.6×250 mm, 5 micron) was used for metabolite separation. All HPLC analyses were performed at 1 mL/min flow rate at 35° C. The HPLC mobile phase consisted of (A) water with 0.1% formic acid and (B) acetonitrile with 0.1% formic acid.
(§4) Each fraction of column eluent was evaporated to dryness on a Savant Speed-Vac (Savant Instruments Inc., Holbrook, N.Y.) and counted for radioactivity with a Packard Top Count® microplate scintillation analyzer (Packard Biosciences, Downers Grove, Ill.).
(§5) The volumes of pooled plasma processed for HPLC analysis for rat, monkey and human ranged between 1.5 and 8.0 mL. Pooled plasma samples were extracted with methanol/acetonitrile (1:1) at a ratio of 2 volumes solvent to 1 volume of plasma. The mixtures were vortex mixed, sonicated for 5 min, and centrifuged at 3500 rpm for 10 min. The supernatants were transferred into new tubes. The remaining pellets were extracted two more times with 3 mL of methanol/acetonitrile (1:1). The supernatants were combined and evaporated to dryness in a Savant Speed-Vac (Savant Instruments, Inc., Holbrook, N.Y.). The residue was reconstituted into 0.35 to 0.45 mL of 30% acetonitrile in water, vortex mixed and centrifuged at 13000 rpm for 5 min (American Scientific Products Biofuge A centrifuge, Heraeus Sepatech GmbH, Germany). The supernatant was injected onto the HPLC for profiling. Aliquots of the reconstituted samples (30 μl) were also counted on the liquid scintillation counter (LSC) to determine the recovery of radioactivity.
(§6) The pooled monkey and human urine samples (3-5 mL) were extracted with 2 volumes of acetonitrile/acetone (1:1). The mixtures were vortex mixed, sonicated and centrifuged at 3500 rpm for 10 min. The supernatants were evaporated to dryness. The residue was suspended in 0.3-0.5 mL of 30% acetonitrile in water and centrifuged at 13000 rpm for 5 min. Aliquots of the supernatants were injected onto the HPLC or analyzed by LSC for radioactivity recovery. Pooled urine samples from BDC monkeys and rats were centrifuged at 13000 rpm for 10 min and injected onto the HPLC for profiling without further treatment.
(§7) The amount of fecal homogenate used for analysis was 0.20, 0.19 and 0.51 g for rat, monkey and human, respectively. Each pooled fecal homogenate was extracted by addition of 3 volumes of acetonitrile/methanol (1:1) to 1 volume of fecal homogenate and mixed on a vortex mixer. The mixture was sonicated for 5 min and then centrifuged at 3000 rpm for 10 min. The supernatants were removed and saved. The extraction was repeated two additional times and the supernatants were combined and evaporated to dryness on a Savant Speed-Vac. […] An aliquot of the supernatant was injected onto the HPLC or analyzed by LSC for radioactivity recovery.
(§8) The LC/MS system used for analysis of plasma, urine, bile, and fecal samples consisted of an Agilent 1100™ HPLC system connected to a Finnigan LCQ-DecaXP mass spectrometer. Samples were analyzed using positive electrospray ionization. The capillary temperature used for analysis was 320° C., and the nitrogen gas flow rate, spray current, and voltages were adjusted to give maximum sensitivity. The HPLC conditions were described in section 3.3.1.
Counts per min (CPM) were determined on a Packard TopCount NXT microplate scintillation and luminescence counter. For each injection, the average CPM value (2-4 CPM) obtained from fractions between 2-3 min (column void) in the chromatogram was subtracted from the CPM value of each fraction. Biotransformation profiles were prepared by plotting the background subtracted CPM values against time-after-injection.

[2] = Radioactive metabolites in plasma, urine and feces after single oral dose of [14C] compound (I) to monkeys; assay type: in vivo, cynomolgus monkey; conditions: for % Distribution of radioactive metabolites in pooled plasma, Monkey (4 h): oral 10 mg/kg [14C] compound (I), plasma 4 h; for Metabolites in Feces (0-168 hr), Monkey, % Dose / Metabolites in Feces (0-168 hr), Monkey, % Rad / Metabolites in Urine (0-168 hr), Monkey, % Dose / Metabolites in Urine (0-168 hr), Monkey, % Rad: oral 10 mg/kg; for Metabolites in Feces (0-168 hr), Monkey, % Dose / Metabolites in Feces (0-168 hr), Monkey, % Rad: pooled fecal extracts 0-168 hr; for Metabolites in Urine (0-168 hr), Monkey, % Dose / Metabolites in Urine (0-168 hr), Monkey, % Rad: pooled urine 0-168 hr
Method: A separate bile-duct cannulated (BDC) monkey study was also conducted.
as §1, §2, §3, §4, §5, §6, §7, §8
Counts per min (CPM) were determined on a Packard TopCount NXT microplate scintillation and luminescence counter. For each injection, the average CPM value (2-4 CPM) obtained from fractions between 2-3 min (column void) in the chromatogram was subtracted from the CPM value of each fraction.

SMILES	Metabolites in Feces (0-168 hr), Rat, % Dose [1]	Metabolites in Feces (0-168 hr), Rat, % Rad (% of total radioactivity in sample) [1]	Metabolites in Urine (0-168 hr), Rat, % Dose [1]	Metabolites in Urine (0-168 hr), Rat, % Rad (% of total radioactivity in sample) [1]	% Distribution of radioactive metabolites in pooled plasma, Monkey (4 h) [2]	Metabolites in Feces (0-168 hr), Monkey, % Dose [2]	Metabolites in Feces (0-168 hr), Monkey, % Rad [2]	Metabolites in Urine (0-168 hr), Monkey, % Dose [2]	Metabolites in Urine (0-168 hr), Monkey, % Rad [2]	% Distribution of radioactive metabolites in pooled plasma, Rat (4 h) [1]
Cc1nc(Nc2ncc(C(=O)Nc3c(C)cc(O)cc3Cl)s2)cc(N2CCN(CCO)CC2)n1 [M20 (V)]	7.6%	9.9%	0.6%	9.9%	2.8%	11.7%	15.2%	0.02%	0.6%	–
Cc1nc(Nc2ncc(C(=O)Nc3c(Cl)cccc3CO)s2)cc(N2CCN(CCO)CC2)n1 [M24 (VI), N-(2-chloro-6-(hydroxymethyl)phenyl)-2-(6-(4-(2-hydroxyethyl)piperazin-1-yl)-2-methylpyrimidin-4-ylamino)thiazole-5-carboxamide]	3.1%	4.0%	–	–	0.7%	6.6%	8.6%	0.06%	1.9%	–
Cc1nc(Nc2ncc(C(=O)Nc3c(C)cccc3Cl)s2)cc(N2CC[N+]([O-])(CCO)CC2)n1 [M5 (III)]	–	–	3.4%	52.4%	2.6%	–	–	1.1%	35.8%	18.7%
Cc1nc(Nc2ncc(C(=O)Nc3c(C)cccc3Cl)s2)cc(N2CCN(CC(=O)O)CC2)n1 [M6 (IV), 2-(4-(6-(5-((2-Chloro-6-methylphenyl)carbamoyl)thiazol-2-ylamino)-2-methylpyrimidin-4-yl)piperazin-1-yl)acetic acid]	13.2%	17.3%	0.4%	6.5%	2.7%	14.0%	18.2%	0.06%	2.2%	2.2%

The remaining lines, values ahead:

Metabolites in Feces (0-168 hr), Rat, % Dose [1]	Metabolites in Feces (0-168 hr), Rat, % Rad (% of total radioactivity in sample) [1]	Metabolites in Urine (0-168 hr), Rat, % Dose [1]	Metabolites in Urine (0-168 hr), Rat, % Rad (% of total radioactivity in sample) [1]	% Distribution of radioactive metabolites in pooled plasma, Monkey (4 h) [2]	Metabolites in Feces (0-168 hr), Monkey, % Dose [2]	Metabolites in Feces (0-168 hr), Monkey, % Rad [2]	Metabolites in Urine (0-168 hr), Monkey, % Dose [2]	Metabolites in Urine (0-168 hr), Monkey, % Rad [2]	% Distribution of radioactive metabolites in pooled plasma, Rat (4 h) [1]	SMILES
1.9%	2.5%	0.3%	4.4%	3.0%	2.9%	3.8%	0.05%	1.7%	2.6%	Cc1nc(Nc2ncc(C(=O)Nc3c(C)cccc3Cl)s2)cc(N2CCNCC2)n1 [M4 (II)]
41.6%	54.5%	0.7%	11.6%	32.1%	24.7%	32.2%	0.6%	21.2%	52.8%	Cc1nc(Nc2ncc(C(=O)Nc3c(C)cccc3Cl)s2)cc(N2CCN(CCO)CC2)n1 [Parent (I), N-(2-Chloro-6-methylphenyl)-2-[[6-[4-(2-hydroxyethyl)-1-piperazinyl]-2-methyl-4-pyrimidinyl]amino]-5-thiazolecarboxamide]
